Test results as given in patent publication US8309546B2, “Morpholinopurine derivatives” (Daiichi Sankyo Company, Limited, priority 2008, dated 2012).

Key:
[1] = test system: human colon cancer cell strain HT29; assay: Cell growth inhibition test (MTT), HT29; type: cell-based; settings: HT-29, 72 h, HT29, 3 days culture, read-out: concentration exhibiting anti-cell effect (GI50)
Description: (§1) After a cultured cancer cell strain was treated with a test compound for a predetermined period, a cell growth inhibition test was performed by measuring the living cell count by the 3-(4,5-dimethylthiazol-2-yl)-2,5-diphenyltetrazoliumbromide (MTT) method.
(§2) Human endometrial cancer cell strain AN3CA, human ovary cancer cell strain IGROV1, and human colon cancer cell strain HT29 were seeded in a 96-well plate at 5000, 1000, and 5000 cells, respectively, per well. On the following day of seeding, a test compound having a predetermined concentration was added and the culture was continued at 37° C. in 5% CO2 for 3 days. On the final day of culture, an MTT reaction solution was added and the resulting mixture was reacted for 4 hours to form formazan by dehydrogenases contained in living cells. Subsequently, the culture broth was removed, DMSO was added to solubilize formazan, and the amount of produced formazan was determined by measuring absorbance at 540 nm using a microplate reader.
(§3) Since correlations of the amount of produced formazan and the living cell count had been confirmed, the cell growth rate was calculated by the following formula. Cell growth rate (T/C %) after addition of test compound=100×[(B−C)/(A−C)] A: Absorbance of well not containing test compound (final culture day) B: Absorbance of well containing test compound (final culture day) C: Absorbance of well immediately before addition of test compound (following day of cell seeding)
(§4) Furthermore, the cell growth rate at each concentration of serially diluted test compound solutions was obtained, and the concentration of the test compound resulting in a 50% growth rate was obtained as the GI50 value from two concentrations including 50% therebetween and the growth rates were selected.

PI3Kα = PI3Kα (Homo sapiens, UniProt P42336); assay: PI3K kinase activity inhibition assay; type: biochemical; settings: Kinase-Glo Plus ATP detection, read-out: IC50 against PI3K
Chain of PI3Kα (P42336 whole entry, species assumed): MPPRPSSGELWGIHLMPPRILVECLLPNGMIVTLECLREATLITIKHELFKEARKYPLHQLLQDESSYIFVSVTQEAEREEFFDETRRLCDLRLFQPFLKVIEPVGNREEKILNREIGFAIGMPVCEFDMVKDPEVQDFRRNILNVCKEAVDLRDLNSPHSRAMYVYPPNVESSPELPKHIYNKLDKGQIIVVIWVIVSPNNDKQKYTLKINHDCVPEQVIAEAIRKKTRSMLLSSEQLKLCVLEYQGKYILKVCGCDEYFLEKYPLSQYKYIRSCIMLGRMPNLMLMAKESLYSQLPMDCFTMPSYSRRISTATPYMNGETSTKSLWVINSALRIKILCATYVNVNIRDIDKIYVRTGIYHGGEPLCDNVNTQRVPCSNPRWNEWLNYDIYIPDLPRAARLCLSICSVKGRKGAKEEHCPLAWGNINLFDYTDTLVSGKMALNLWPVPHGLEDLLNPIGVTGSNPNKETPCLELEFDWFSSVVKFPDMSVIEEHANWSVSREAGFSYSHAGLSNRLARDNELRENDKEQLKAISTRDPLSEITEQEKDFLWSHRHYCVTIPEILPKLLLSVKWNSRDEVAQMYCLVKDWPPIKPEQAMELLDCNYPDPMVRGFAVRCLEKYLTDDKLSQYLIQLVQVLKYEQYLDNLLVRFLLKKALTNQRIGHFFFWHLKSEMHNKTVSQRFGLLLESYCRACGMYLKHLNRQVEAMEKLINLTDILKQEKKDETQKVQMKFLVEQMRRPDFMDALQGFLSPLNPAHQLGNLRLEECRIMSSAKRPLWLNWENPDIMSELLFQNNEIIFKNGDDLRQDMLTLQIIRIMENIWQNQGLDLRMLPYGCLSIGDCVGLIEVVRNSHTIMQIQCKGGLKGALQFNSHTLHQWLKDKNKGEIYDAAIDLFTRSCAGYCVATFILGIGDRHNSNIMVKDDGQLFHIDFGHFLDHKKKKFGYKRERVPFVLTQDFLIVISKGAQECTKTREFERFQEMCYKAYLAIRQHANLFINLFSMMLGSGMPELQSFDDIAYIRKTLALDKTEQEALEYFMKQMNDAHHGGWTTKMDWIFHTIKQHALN
Chain of PI3Kα (P27986 whole entry partner, species assumed): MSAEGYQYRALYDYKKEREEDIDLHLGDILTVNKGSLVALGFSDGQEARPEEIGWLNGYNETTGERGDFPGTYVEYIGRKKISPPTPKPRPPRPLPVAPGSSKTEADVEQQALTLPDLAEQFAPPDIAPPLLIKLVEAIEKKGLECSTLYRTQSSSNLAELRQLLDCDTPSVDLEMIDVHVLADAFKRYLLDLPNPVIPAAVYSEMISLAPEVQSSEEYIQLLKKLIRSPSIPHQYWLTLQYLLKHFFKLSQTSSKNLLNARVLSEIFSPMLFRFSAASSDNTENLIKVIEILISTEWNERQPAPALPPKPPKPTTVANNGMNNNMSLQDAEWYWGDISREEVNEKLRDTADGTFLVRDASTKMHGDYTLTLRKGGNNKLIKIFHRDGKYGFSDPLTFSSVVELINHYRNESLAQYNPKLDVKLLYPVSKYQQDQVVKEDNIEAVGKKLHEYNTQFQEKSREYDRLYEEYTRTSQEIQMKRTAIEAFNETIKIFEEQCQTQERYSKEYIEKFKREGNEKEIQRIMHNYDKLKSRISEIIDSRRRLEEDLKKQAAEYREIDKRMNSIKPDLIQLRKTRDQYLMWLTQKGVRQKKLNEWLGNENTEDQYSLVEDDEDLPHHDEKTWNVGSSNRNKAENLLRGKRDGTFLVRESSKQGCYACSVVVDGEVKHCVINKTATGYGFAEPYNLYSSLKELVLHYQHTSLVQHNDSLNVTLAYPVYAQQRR
Description: PI3Kα kinase activity was determined in the presence and absence of a test compound. The test compound was dissolved in DMSO and diluted serially with an ATP solution (30 μm ATP, 50 mM HEPES, pH 7.4, 50 mM NaCl, 0.05% CHAPS, 10 mM MgCl2, and 5 mM dithiothreitol [DTT]). First, 7 μl each of the serially diluted test compound solutions was added to each well of a black 384-well plate. Subsequently, 7 μl of a phosphatidylinositol 4,5-bisphosphate (PIP2) solution (45 μm PIP2, 50 mM HEPES, pH 7.4, 50 mM NaCl, 0.05% CHAPS, 10 mM MgCl2, and 5 mM DTT) was added to each well of the 384-well plate. Finally, 7 μl of a solution containing PI3Kα (50 nM PI3Kα, 50 mM HEPES, pH 7.4, 50 mM NaCl, 0.05% CHAPS, 10 mM MgCl2, and 5 mM DTT) was added to each well of the 384-well plate to initiate a reaction. The mixture was reacted at room temperature for 2 hours and then 21 μl of the Kinase-Glo Plusreagent (Promega) was, added to each well of the 384-well plate to terminate the reaction. After the termination of the reaction, the solution was left standing for 15 minutes and then luminescence was measured with ARVO (PerkinElmer Co., Ltd.) to detect ATP remaining in the reaction solution.
The amount of ATP consumed in the reaction was obtained for each well and used as an indicator of PI3Kαkinase activity. The PI3Kα kinase activity in wells not containing the test compound was calculated by the following formula (1). Furthermore, the PI3Kα kinase activity in wells containing the test compound was calculated by the following formula (2). The PI3Kα inhibitory activity (%) of the test compound was calculated by the following formula (3). PI3Kα kinase activity in wells not containing the test compound=B−C (1) PI3Kα kinase activity in wells containing the test compound=B−P (2) PI3Kα inhibitory activity (%) of test compound=100−100×[(B−P)/(B−C)] (3) B: Measured value in wells not containing PI3Kα or the test compound C: Measured value in wells containing PI3Kα and not containing the test compound P: Measured value in wells containing PI3Kα and the test compound
Furthermore, an optimal curve was calculated with Graph Pad Prism 4 using concentrations of the serially diluted test compound solutions and PI3Kα inhibitory activity (%) at each concentration to obtain the concentration showing 50% inhibition as the IC50 value of PI3Kα inhibitory activity.

[2] = molecular target: T1, human mTOR (His-tagged mTOR (1362C)) (Homo sapiens, UniProt P42345); assay: mTOR kinase activity inhibition assay; type: biochemical; settings: HTRF, read-out: IC50 against mTOR
T1 construct: the 1362 to 2549 amino acid portion on the C terminus side of human mTOR; His tag (N); made in house
T1 sequence (P42345 1362-2549): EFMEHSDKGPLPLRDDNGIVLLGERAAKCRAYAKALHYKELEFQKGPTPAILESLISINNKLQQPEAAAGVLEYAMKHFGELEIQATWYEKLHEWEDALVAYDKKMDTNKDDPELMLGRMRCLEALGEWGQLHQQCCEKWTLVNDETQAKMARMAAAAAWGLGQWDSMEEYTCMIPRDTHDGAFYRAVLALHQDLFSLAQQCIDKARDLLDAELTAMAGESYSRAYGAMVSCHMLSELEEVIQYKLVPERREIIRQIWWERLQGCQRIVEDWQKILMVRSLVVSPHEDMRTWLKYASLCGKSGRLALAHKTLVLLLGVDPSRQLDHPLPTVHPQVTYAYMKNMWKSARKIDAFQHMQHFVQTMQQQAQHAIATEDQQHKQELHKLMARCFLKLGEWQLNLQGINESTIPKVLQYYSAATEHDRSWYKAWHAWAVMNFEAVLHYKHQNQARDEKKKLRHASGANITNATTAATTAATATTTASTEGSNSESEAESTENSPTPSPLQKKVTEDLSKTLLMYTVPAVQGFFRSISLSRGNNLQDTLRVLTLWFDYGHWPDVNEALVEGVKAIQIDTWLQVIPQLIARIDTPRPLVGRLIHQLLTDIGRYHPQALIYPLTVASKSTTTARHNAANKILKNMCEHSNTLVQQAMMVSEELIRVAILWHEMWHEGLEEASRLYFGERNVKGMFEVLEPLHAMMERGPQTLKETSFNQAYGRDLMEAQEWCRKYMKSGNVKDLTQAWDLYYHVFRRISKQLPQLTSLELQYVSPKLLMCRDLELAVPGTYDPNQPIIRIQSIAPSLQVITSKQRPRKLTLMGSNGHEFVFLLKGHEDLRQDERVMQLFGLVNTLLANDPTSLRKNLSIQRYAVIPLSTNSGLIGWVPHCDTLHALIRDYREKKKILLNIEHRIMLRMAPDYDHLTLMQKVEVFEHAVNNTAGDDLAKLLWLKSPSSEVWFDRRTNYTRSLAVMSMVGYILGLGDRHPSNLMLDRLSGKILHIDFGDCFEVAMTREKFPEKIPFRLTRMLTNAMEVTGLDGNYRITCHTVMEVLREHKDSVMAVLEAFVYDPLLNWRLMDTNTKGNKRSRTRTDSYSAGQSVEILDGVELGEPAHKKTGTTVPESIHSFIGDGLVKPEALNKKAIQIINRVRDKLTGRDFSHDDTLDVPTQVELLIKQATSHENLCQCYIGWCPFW
Description: The mTOR kinase activity was determined in the presence and absence of a test compound. A substrate peptide is phosphorylated by mTOR kinase activity. A complex of streptavidin-XL665 and anti-phosphorylated S6K (Thr389) antibody-anti-mouse IgG-cryptate binds to this phosphorylated peptide. At this time, irradiation of excitation light induces transfer of fluorescence resonance energy from the excited cryptate to XL665, emitting fluorescence at 665 nm. Utilizing this principle, mTOR kinase activity was detected. When the mTOR inhibitor is present, phosphorylation of a substrate peptide is inhibited, and the biding of the above-mentioned complex to the substrate peptide is inhibited.
A His tag was introduced into the N terminus end of the 1362 to 2549 amino acid portion on the C terminus side of human mTOR, and a cell line was prepared, so that His-tagged mTOR should be constantly expressed in a HEK293 cell. A cell lysate was prepared from this HEK293 cell which constantly expressed His-tagged mTOR (1362C), and a crude product of His-tagged mTOR (1362C) was obtained by a usual method utilizing His tag.
Subsequently, an mTOR enzyme solution was prepared which contained the above-mentioned His-tagged mTOR (1362C) enzyme and 8 μg/ml biotinylated peptide (Biotin-Ahx-[…]-amide [Sigma]), as well as 50 mM HEPES (pH 7.5), 20 mM MnCl2, 1 mg/ml BSA, a suitable amount of protease inhibitor cocktail (Complete EDTA free, Roche Ltd.), 100 ng/ml calyculin A, and 4 μg/ml cantharidin as other components.
The test compound was dissolved in dimethyl sulfoxide (DMSO) and serially diluted with 20 μm ATP solution (50 mM HEPES (pH 7.5), 20 μM ATP) to obtain concentrations required for the assay. 5 μl of this compound solution was added to each well of a 384-well small volume white plate manufactured by Greiner Bio-One Co., Ltd.
5 μl of the mTOR enzyme solution was added to the above-mentioned well containing the test compound and the resulting mixture was left standing for 3 hours room temperature to proceed an enzymatic reaction.
The same procedure was performed using a solution obtained by dissolving DMSO in 20 μM ATP solution as a positive control and a solution obtained by dissolving DMSO in 50 mM HEPES buffer (pH 7.5) as a negative control.
After the enzymatic reaction, 5 μl each of an europium solution (a solution obtained by dissolving anti-mouse IgG-cryptate [SCETI Medical Labo K.K.] and anti-phosphorylation S6K [Thr389] antibody [Cell Signaling Technology Inc.] in 50 mM HEPES [pH 7.5], 100 mM EDTA, and 1.5 mg/ml BSA) and an XL665 solution (a solution obtained by dissolving Streptavidin-XL 665 [SCETI Medical Labo K.K.] in 50 mM HEPES [pH 7.5], 100 mM EDTA, 0.8 M KF, and 1.5 mg/ml BSA) were added in this order and mixed and the resulting mixture was left standing overnight at 4° C. On the following day, the mixture was returned to room temperature and then irradiated with 337-nm excitation light and fluorescence at 620 and 665 nm was measured with RUBYstar (BMG LABTECH JAPAN Ltd.).
mTOR inhibitory activity (%) was calculated using the ratio calculated from the measured values as an indicator of enzyme activity. Here, the ratio was calculated by the following formula (1). Ratio=10,000×fluorescence at 665 nm/fluorescence at 620 nm (1)
mTOR enzyme inhibitory activity (%) was calculated by the following formula (2). mTOR enzyme inhibitory activity (%)=100×[(P−S)/(P−N)] (2) P: Ratio in positive control well N: Ratio in negative control well S: Ratio in well containing the test compound
Furthermore, an optimal curve was created using the concentrations of the serially diluted test compound solutions and mTOR enzyme inhibitory activity (%) at each concentration to obtain the concentration showing 50% inhibition as the IC50 value of mTOR enzyme inhibitory activity.

[3] = test system: human ovary cancer cell strain IGROV1; assay: Cell growth inhibition test (MTT), IGROV1; type: cell-based; settings: IGROV-1, 72 h, IGROV1, 3 days culture, read-out: concentration exhibiting anti-cell effect (GI50)
Description: as §1, §2, §3, §4

[4] = test system: human endometrial cancer cell strain AN3CA; assay: Cell growth inhibition test (MTT), AN3CA; type: cell-based; settings: AN3-CA, 72 h, 3 days culture, read-out: concentration exhibiting anti-cell effect (GI50)
Description: as §1, §2, §3, §4

Structure (SMILES)	GI50 [1] [nM]	IC50 (PI3Kα) [nM]	IC50 [2] [nM]	GI50 [3] [nM]	GI50 [4] [nM]
C[C@@H]1CN(c2nc3c(N4CCOCC4)nc(-c4cnc(N)nc4)nc3n2CC2CCOC2)C[C@H](C)N1 (stereo partly drawn) [Example 17, 5-[8-(cis-3,5-Dimethylpiperazin-1-yl)-6-morpholin-4-yl-9-(tetrahydrofuran-3-ylmethyl)-9H-purin-2-yl]pyrimidin-2-amine]	≤ 5000	20 to 50	100 to 500	≤ 5000	≤ 5000
CNc1ncc(-c2nc(N3CCOCC3)c3nc(N4C[C@@H](C)N[C@@H](C)C4)n(CC4CCOC4)c3n2)cn1 (stereo partly drawn) [Example 18, 5-[8-(cis-3,5-Dimethylpiperazin-1-yl)-6-morpholin-4-yl-9-(tetrahydrofuran-3-ylmethyl)-9H-purin-2-yl]-N-methylpyrimidin-2-amine]	≤ 5000	50 to 100	100 to 500	≤ 5000	≤ 5000
Nc1ncc(-c2nc(N3CCOCC3)c3nc(N4CCNCC4)n(CC4CC4)c3n2)cn1 [Example 19, 5-[9-(Cyclopropylmethyl)-6-morpholin-4-yl-8-piperazin-1-yl-9H-purin-2-yl]pyrimidin-2-amine]	≤ 5000	10 to 20	30 to 100	≤ 5000	≤ 5000
Nc1ncc(-c2nc(N3CCOCC3)c3nc(N4CCOCC4)n(CC4CC4)c3n2)cn1 [Example 20, 5-[9-(Cyclopropylmethyl)-6,8-dimorpholin-4-yl-9H-purin-2-yl]pyrimidin-2-amine]	≤ 5000	10 to 20	30 to 100	≤ 5000	≤ 5000
Cc1nc(N)ncc1-c1nc(N2CCOCC2)c2nc(NCCN(C)C)n(CC3CC3)c2n1 [Example 21, N′-[2-(2-Amino-4-methylpyrimidin-5-yl)-9-(cyclopropylmethyl)-6-morpholin-4-yl-9H-purin-8-yl]-N,N-dimethylethane-1,2-diamine]	≤ 5000	10 to 20	≥ 500	≤ 5000	≤ 5000
Cc1nc(N)ncc1-c1nc(N2CCOCC2)c2nc(NCCN3CCOCC3)n(CC3CC3)c2n1 [Example 22, 2-(2-Amino-4-methylpyrimidin-5-yl)-9-(cyclopropylmethyl)-6-morpholin-4-yl-N-(2-morpholin-4-ylethyl)-9H-purin-8-amine]	≤ 5000	10 to 20	≥ 500	≤ 5000	≤ 5000
Nc1ncc(-c2nc(N3CCOCC3)c3nc(N4CCOCC4)n(CC4CCOC4)c3n2)cn1 (centres unmarked) [Example 23, 5-[6,8-Dimorpholin-4-yl-9-(tetrahydrofuran-3-ylmethyl)-9H-purin-2-yl]pyrimidin-2-amine]	≤ 5000	20 to 50	30 to 100	≤ 5000	≤ 5000
CNc1ncc(-c2nc(N3CCOCC3)c3nc(N4CCOCC4)n(CC4CCOC4)c3n2)cn1 (centres unmarked) [Example 24, 5-[6,8-Dimorpholin-4-yl-9-(tetrahydrofuran-3-ylmethyl)-9H-purin-2-yl]-N-methylpyrimidin-2-amine]	≤ 5000	50 to 100	100 to 500	≤ 5000	≤ 5000
CNc1ncc(-c2nc(N3CCOCC3)c3nc(N4CCN(S(C)(=O)=O)CC4)n(CC4CCOC4)c3n2)cn1 (centres unmarked) [Example 25, N-Methyl-5-{8-[4-(methylsulfonyl)piperazin-1-yl]-6-morpholin-4-yl-9-(tetrahydrofuran-3-ylmethyl)-9H-purin-2-yl}pyrimidin-2-amine]	≤ 5000	20 to 50	30 to 100	≤ 5000	≤ 5000
C[C@@H]1CN(c2nc3c(N4CCOCC4)nc(-c4cnc(N)nc4)nc3n2[C@H]2CCN(S(C)(=O)=O)C2)C[C@H](C)N1 [Example 26, 5-{8-(cis-3,5-Dimethylpiperazin-1-yl)-9-[(3S)-1-(methylsulfonyl)pyrrolidin-3-yl]-6-morpholin-4-yl-9H-purin-2-yl}pyrimidin-2-amine]	≤ 5000	20 to 50	100 to 500	≤ 5000	≤ 5000
